Data from ChEMBL document CHEMBL4342475, “Structure-Bioactivity Relationships of Lapatinib Derived Analogs against Schistosoma mansoni” (ACS Med Chem Lett, 2020).
In brackets after ≈: the same amount, converted by molar mass. Activity calls are given as the source filed them. No cut-off for these calls is given here.

Key:
Schistosoma mansoni [1] = assay: Antiparasitic activity against Schistosoma mansoni infected in Hamster assessed as severity score at 10 uM incubated for 1 hr; format: functional, organism-based
Schistosoma mansoni [2] = assay: Antiparasitic activity against Schistosoma mansoni infected in Hamster assessed as severity score at 10 uM incubated for 5 hrs; format: functional, organism-based
Schistosoma mansoni [3] = assay: Antiparasitic activity against Schistosoma mansoni infected in Hamster assessed as severity score at 10 uM incubated for 24 hrs; format: functional, organism-based
Schistosoma mansoni [4] = assay: Antiparasitic activity against Schistosoma mansoni infected in Hamster assessed as severity score at 10 uM incubated for 48 hrs; format: functional, organism-based
[5] = Cytotoxicity against human HepG2 cells assessed as reduction in cell viability 48 hrs by MTT assay; format: cell-based; conditions: read-out: TC50
[6] = Aqueous solubility of compound incubated for 24 hrs by LC-MS/MS analysis; format: physicochemical; conditions: buffer, 24 h
[7] = Protein binding in human plasma at 1 uM by LC-MS/MS analysis; format: ADME, cell-free
[8] = Metabolic stability in human liver microsomes assessed as intrinsic clearance by LC-MS/MS analysis; format: ADME, Microsome

solubility [6]: 670 µM (≈ 286 µg/mL)
PPB [7]: 82%
intrinsic clearance [8]: 260 µL/min/mg
Compound: Cc1cc2c(Nc3cnccn3)ccnc2cc1-c1cnc(N2CCCN(C)CC2)nc1
Activity (Schistosoma mansoni [1]): Active
Activity (Schistosoma mansoni [2]): Active
Activity (Schistosoma mansoni [3]): Active
Activity (Schistosoma mansoni [4]): Active
CC50 at 48 h [5]: 7.6 µM
